Data set [1] can be described thus: Toxicity to humans. It counts as in vivo. The conditions noted are these: doses up to at least 100 mg/kg. As to the method: 2-amino-2-thiazoline and 2-amino-2-thiazoline hydrochloride are also non-toxic to humans in doses up to at least 100 mg/kg. Therefore, the dosage administered can vary over a wide range, without concern that undesirable side-effects will result from large dosages.

In data set [2] the test system is advanced metastastic bladder cancer. In words: Clinical trial in patients with advanced metastatic bladder cancer. It counts as in vivo, humans. As to the method:
Clinical trials with 2-amino-2-thiazoline hydrochloride have been conducted on 9 patients suffering from advanced metastastic bladder cancer, not amenable to any other treatment.
Only patients with measurable and progressing bladder tumors and lung metastases the growth rate of which was measured weekly in X-ray plates for serveral weeks before beginning the treatment were admitted to the trial. The development of the bladder tumors was measured by cytos- copy after biopsy.
Each of the patients were intravenously administered 2-amino-2-thiazoline-hydrochloride, as an aqueous solution (25-75 mg/ml) at the dose of 1.5 mg/kg of body weight on a daily basis per 5 days, every three weeks (the first 5 patients), and at dose of 3 mg/kg daily per 5 days every three weeks (the following 4 patients).

The test system of data set [3] is Hela cells. Briefly: Restoration of contact inhibition in colonies of Hela cells. It is filed as cell-based, human. The protocol:
Hela cells, a type of cell derived from human uterine tumor, were seeded in Eagle culture flasks at the concentration of 50 cells/cm^2. The cells were allowed to develop colonies during a period of 10 days with two changes of the medium on the second and sixth day. A tissue culture (minimum essential medium of Eagle with 10% calf serum) comprising amino acids, vitamins and glucose was employed.
2-Amino-2-thiazoline, obtained by treatment of the hydrochloride with a molar equivalent of sodium hydroxide, was added to the medium at varying concentrations on both the second day and the sixth day, after the initiation of the culture. A total of 3 flasks containing the cultured colonies were used for each concentration of 2-amino-2-thiazoline employed. On the tenth day, the cells were fixed in neutral formol and were stained with hematoxyline. A total of 500 colonies of the same size in each flask were counted at random and the percentage of colonies with contact inhibition (planar morphology) or without contact inhibition (pyrimidal or acuminated morphology) were noted.

Data set [4] deals with tumors of various origins. Briefly: Preliminary clinical trial in tumors of various origins. It is filed as in vivo. The text has this: (§1) The preceding description is but illustrative of the practice of the invention and it is to be understood that other expedients may be employed by those skilled in the art without departure from the scope of the invention. Data on human tumors have been provided for bladder cancer because in a preliminary study of the biochemical affinity of 2-amino-2-thiazoline with tumor membrane receptors, the affinity with the bladder tumor receptor was very high. […] Therefore, it is claimed that 2-amino-2-thiazoline is an antitumor agent for mammalian cancer acting without toxicity by inducing reverse transformation.

Data set [5] concerns bladder tumor receptor. In words: Preliminary study of biochemical affinity with tumor membrane receptors (bladder). It counts as binding.
From the text: as §1

For data set [6], the system named is Lewis Lung carcinoma. Briefly: Effect on mouse tumors: survival time, Lewis Lung carcinoma. It is filed as in vivo. The settings on record: mice inoculated with Lewis Lung carcinoma. As to the method:
(§2) The effect of 2-amino-2-thiazoline on mouse tumors (le'ukemia 1210 and Lewis Lung carcinoma) was also tested. […] However, it is knwon that the cells associated with those tumors are extremely undifferentiated from normal cells so as to have lost all or nearly all of the cytoskeletal system of contractile microfilaments. Such cells would be expected to be insensitive to agents which induce reverse transformation. Leukemia 1210 and Lewis Lung carcinoma are transplantable tumors and, upon transplantation, they have lost the tissue specific membrane receptors which are the target of 2-amino-2-thiazoline.

For data set [7], the system named is other tumor receptors of different tissue origin. Briefly: Preliminary study of biochemical affinity with tumor membrane receptors (other tissues). It is filed as binding.
From the text: as §1

The subject of data set [8] is Leukemia 1210. In words: Effect on mouse tumors: survival time, leukemia 1210. It counts as in vivo. The settings on record: mice inoculated with leukemia 1210. As to the method:
as §2

The mark [9] stands for this setting: patient 1, bladder carcinoma, lesion lung and bladder, total dose 2.5 gr, i.v. 1.5 mg/kg daily per 5 days every three weeks.
The mark [10] stands for this setting: patient 2, bladder carcinoma, lesion lung and bladder, total dose 3.2 gr, i.v. 1.5 mg/kg daily per 5 days every three weeks.
[11] abbreviates: patient 3, bladder carcinoma, lesion lung and bladder, total dose 2.8 gr, i.v. 1.5 mg/kg daily per 5 days every three weeks.
Setting [12] is: patient 4, bladder carcinoma, lesion bladder, total dose 3.7 gr, i.v. 1.5 mg/kg daily per 5 days every three weeks.
The mark [13] stands for this setting: patient 5, bladder carcinoma, lesion lung and bladder, total dose 4.9 gr, i.v. 1.5 mg/kg daily per 5 days every three weeks.
Setting [14] is: patient 6, bladder carcinoma, lesion bladder, total dose 12 gr, i.v. 3 mg/kg daily per 5 days every three weeks.
Setting [15] is: patient 7, bladder carcinoma, lesion lung and bladder, total dose 9.6 gr, i.v. 3 mg/kg daily per 5 days every three weeks.
Where [16] appears, read: patient 8, bladder carcinoma, lesion lung and bladder, total dose 11.8 gr, i.v. 3 mg/kg daily per 5 days every three weeks.
Setting [17] is: patient 9, bladder carcinoma, lesion lung and bladder, total dose 10.8 gr, i.v. 3 mg/kg daily per 5 days every three weeks.
The mark [18] stands for this setting: 1 μMol, added on day 2 and day 6, read on day 10.
[19] abbreviates: 2 μMol, added on day 2 and day 6, read on day 10.
Setting [20] is: 5 μMol, added on day 2 and day 6, read on day 10.
Where [21] appears, read: 10 μMol, added on day 2 and day 6, read on day 10.
[22] abbreviates: 20 μMol, added on day 2 and day 6, read on day 10.

For `Cl.NC1=NCCS1` [2-Amino-2-thiazoline·HCl, 2-amino-2-thiazoline hydrochloride], the Toxicity entry is reported as “non-toxic” in data set [1]; “None of the patients showed any toxicity” in data set [2] (all 9 patients, i.v. 1.5 or 3 mg/kg daily per 5 days every three weeks); “none” in data set [2] (setting [9]); “none” in data set [2] (setting [10]); “none” in data set [2] (setting [11]); “none” in data set [2] (setting [12]). In addition, the Toxicity result in data set [2] (setting [13]), in data set [2] (setting [14]), in data set [2] (setting [15]), in data set [2] (setting [16]) and in data set [2] (setting [17]) was “none” each time. Moreover, the “objective responses (mor than 50% reduction of tumor size)” value in data set [2] (number of responders out of the 9 cases, combined area of lung metastasis and size of the cystoscopic lesion) is 4. Besides, the Response entry in data set [2] (setting [9]) was “complete remission”; in data set [2] (setting [10]) it was “partial remission”; in data set [2] (setting [11]), “complete remission”; in data set [2] (setting [12]), “stabilization”; in data set [2] (setting [13]) it was “stabilization”; in data set [2] (setting [14]), “complete remission”. Further, the Response result in data set [2] (setting [15]) is “complete remission”; in data set [2] (setting [16]) it was “stabilization”; in data set [2] (setting [17]) it was “stabilization”.

`NC1=NCCS1` [2-Amino-2-thiazoline]: the Toxicity entry in data set [1] is listed as “non-toxic”. Also, the “Colonies without contact inhibition” value in data set [3] (setting [18]) is given as 42%; in data set [3] (setting [19]), 41%; in data set [3] (setting [20]) it was 25%; in data set [3] (setting [21]), 14%; in data set [3] (setting [22]) it was 0%. In addition, the “Total number of colonies” value came out at 100% in data set [3] (setting [18]); 100% in data set [3] (setting [19]); 85% in data set [3] (setting [20]); 75% in data set [3] (setting [21]); 45% in data set [3] (setting [22]). Further, the “Colonies with contact inhibition” value in data set [3] (1 μMol, added on day 2 and day 6, read on day 10, 500 colonies per flask) was 58%; in data set [3] (setting [19]), 59%; in data set [3] (setting [20]), 75%; in data set [3] (setting [21]), 86%; in data set [3] (20 μMol (maximum dosage), added on day 2 and day 6, read on day 10), 100%. In addition, the clinical response result in data set [4] is “stabilization and minor remissions”. Moreover, in data set [5], the “biochemical affinity with tumor membrane receptors” value was “very high”. Further, the “increasing the survival time of the mice” value in data set [6] and in data set [8] was “completely inactive” throughout. Moreover, the “affinity for other tumor receptors” value in data set [7] was “shown affinity”.

(Values after EP0029697A1, “Pharmaceutical compositions for the treatment of neoplastic diseases and process therefor” (Gosalvez, Mario Gosalvez, priority 1979, dated 1981).)
